Test results: article PMC7394005, “Assessing the Selectivity of FXR, LXRs, CAR, and RORγ Pharmaceutical Ligands With Reporter Cell Lines” (Frontiers in Pharmacology, 2020)
Read-outs that look alike come from different tables or passages of the source.

Experiments:
Type in all cases: cell-based
human RORγ = biological target: T1, human RORγ (Homo sapiens, UniProt P51449); assay: HG5LN GAL4-RORγ reporter cell line, inhibition of constitutive activity; conditions: tested alone, NE = No effect; for IC50: inhibition of constitutive activity
T1 construct: RORγ (S97-K518); expressed in transfected cells; host or cells: HG5LN (HeLa cells carrying the (GAL4RE)5-βGlob-Luc-SVNeo reporter)
T1 sequence (P51449 97-518): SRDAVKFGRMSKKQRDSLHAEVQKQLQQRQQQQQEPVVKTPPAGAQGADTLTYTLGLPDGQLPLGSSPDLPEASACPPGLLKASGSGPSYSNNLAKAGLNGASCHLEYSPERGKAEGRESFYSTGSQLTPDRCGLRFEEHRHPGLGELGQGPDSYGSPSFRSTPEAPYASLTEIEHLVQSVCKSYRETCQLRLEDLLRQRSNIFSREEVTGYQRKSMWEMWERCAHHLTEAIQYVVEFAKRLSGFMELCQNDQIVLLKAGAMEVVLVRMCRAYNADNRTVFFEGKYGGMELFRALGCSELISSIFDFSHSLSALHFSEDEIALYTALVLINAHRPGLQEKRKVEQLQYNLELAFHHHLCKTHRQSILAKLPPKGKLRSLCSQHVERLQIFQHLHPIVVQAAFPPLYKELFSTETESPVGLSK
From the text: (§1) To construct GAL4-NR chimeras, individual LBDs of human FXR (R193-Q486), LXRα (A187-E447), LXRβ (G199-E461), CAR (M76-S348), and RORγ (S97-K518) were amplified by PCR with primers containing XhoI and SacI restriction sites (FXR), XhoI and BamHI (LXRs, CAR, RORγ) and inserted in pSG5-GAL4(DBD)-puromycin plasmid. To construct GAL4-CAR (+ APYLT) (M76-S353), the five amino acids APYLT were inserted by overlap extension PCR between amino acids P270 and D271 of CAR.
(§2) To characterize the specificity of chemicals for human FXR, LXRα, LXRβ, CAR and RORγ, we established in a similar manner HG5LN FXR, LXRα, LXRβ, CAR WT, CAR (APYLT) and RORγ reporter cell lines. […] These cells were stably transfected by pSG5-GAL4 (DBD)-NRs (LBD)-puromycin plasmid and selected in presence of 0.5 µg/ml puromycin. […] From each HG5LN NR cells, 5 to 10 clones were chosen for their ligand inducibility of luciferase expression. […] The most inducible clones were expanded and rechecked for inducibility and aliquots were frozen at different passages. One clone per receptor was maintained in culture and used for ligand screening. HG5LN cells were cultured in Dulbecco’s modified Eagle’s medium (DMEM): Nutrient Mixture F-12 (DMEM/F-12) containing phenol red and 1 g/l glucose and supplemented with 5% fetal bovine serum, 100 units/ml of penicillin, 100 µg/ml of streptomycin and 1 mg/ml geneticin, in 5% CO2 humidified atmosphere at 37°C. Stably transfected cell lines derived from HG5LN cells were cultured in the same culture medium supplemented with 0.5 µg/ml puromycin.
(§3) Individual reporter cell lines were seeded at a density of 40,000 cells per well in 96-well white opaque tissue culture plates (Greiner CellStar) in Dulbecco’s Modified Eagle Medium: Nutrient Mixture F-12 (DMEM/F-12) without phenol red and 1 g/l glucose and supplemented with 5% stripped fetal bovine serum, 100 units/ml of penicillin, 100 µg/ml of streptomycin (test medium). Chemicals to be tested were added 24h later, and cells were incubated at 37°C for 16h. Experiments were performed in quadruplicates. At the end of the incubation period, culture medium was replaced with test medium containing 0.3 mM luciferin solution. Luciferase activity was measured for 2s in intact living cells after 10 min stabilization using a Micro Beta Wallac luminometer (PerkinElmer). EC50 values were calculated using GraphPad Prism (GraphPad Software Inc).
(§4) Chemicals tested for agonism on FXR, LXRs, CAR (+ APYLT), PXR, and antagonism on CAR and RORγ were tested alone, without addition of any other ligand.
(§5) In the transactivation assay, each compound was tested at various concentrations in three independent experiments at least. For each experiment, tests were performed in quadruplicates for each concentration, and data are expressed by means values with standard deviations. Individual agonist dose–response curves, in the absence and presence of antagonist, were fitted using the sigmoid dose-response function of a graphics and statistics software program (GraphPad Prism, version 5.0). EC50 (effective concentration for half-maximal luciferase activity) and IC50 (half-maximal inhibitory concentration) values were calculated from equations used to fit the data in this graphic software. Transactivation data are presented as EC50 and IC50 values for each compound tested. To analyze significances, we compared individual compound treatments with controls using one-way analysis of variance (ANOVA) with the help of GraphPad Prism software.

human FXR = biological target: T2, human FXR (Homo sapiens, UniProt Q96RI1); assay: HG5LN GAL4-FXR reporter cell line, agonist mode (luciferase transactivation); conditions: NE = No effect; for EC50: HG5LN GAL4-FXR cells, tested alone
T2 construct: FXR (R193-Q486); expressed in transfected cells; host or cells: HG5LN (HeLa cells carrying the (GAL4RE)5-βGlob-Luc-SVNeo reporter)
T2 sequence (Q96RI1 193-486): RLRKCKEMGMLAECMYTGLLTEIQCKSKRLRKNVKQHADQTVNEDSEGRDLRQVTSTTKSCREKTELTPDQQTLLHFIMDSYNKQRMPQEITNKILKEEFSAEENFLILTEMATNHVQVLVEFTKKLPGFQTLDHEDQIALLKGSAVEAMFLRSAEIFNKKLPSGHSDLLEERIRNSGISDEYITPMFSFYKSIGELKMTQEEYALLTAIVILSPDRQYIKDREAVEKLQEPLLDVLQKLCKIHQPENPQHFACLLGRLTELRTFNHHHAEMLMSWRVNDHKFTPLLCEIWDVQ
From the text: as §1, §2, §3, §4, §5

human CAR WT = biological target: T3, human CAR WT (Homo sapiens, UniProt Q14994); assay: HG5LN GAL4-CAR WT reporter cell line, inhibition of constitutive activity; conditions: for remaining activity at 10 µM: HG5LN, read-out: CAR WT % min act; for IC50: inhibition of constitutive activity
T3 construct: CAR (M76-S348); expressed in transfected cells; host or cells: HG5LN (HeLa cells carrying the (GAL4RE)5-βGlob-Luc-SVNeo reporter)
T3 sequence (Q14994 76-348 isoform Q14994-2): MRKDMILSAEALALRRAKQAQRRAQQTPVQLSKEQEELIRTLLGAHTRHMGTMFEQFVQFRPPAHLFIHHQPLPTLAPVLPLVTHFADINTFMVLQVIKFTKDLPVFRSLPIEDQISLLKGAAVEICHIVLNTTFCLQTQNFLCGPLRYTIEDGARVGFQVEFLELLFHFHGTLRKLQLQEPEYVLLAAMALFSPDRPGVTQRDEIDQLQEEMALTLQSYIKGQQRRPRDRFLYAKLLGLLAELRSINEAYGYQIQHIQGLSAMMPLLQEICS
From the text: as §1, §2, §3, §4, §5

[1] = tested alone, constitutive activity = 100%, at 10^-5 M (10^-6 M *, 3 10^-6 M **), NE = No effect

IC50 (human RORγ) [µM] | EC50 (human FXR) [µM] | remaining activity at 10 µM (human CAR WT; [1]) [%] | IC50 (human CAR WT; tested alone, NE = No effect) [µM] | CAR WT % min act (human CAR WT; [1]) [%] | FXR % max act (human FXR; maximal luciferase activity at 10^-5 M (10^-6 M for * and 3 10^-6 M for ** compounds), 100% = 1 µM GW4064, DMSO 6 ± 1) [%] | RORγ % min act (human RORγ; constitutive activity = 100%, at 10^-5 M (10^-6 M *, 3 10^-6 M **)) [%] | Compound | remaining activity at 10 µM (human CAR WT) [%]
> 10 | > 10 | 65 | 8.75 ± 3.69 |  |  |  | Cc1cc(C)c(S(=O)(=O)N(CCc2cccc(Br)c2)Cc2ccc(-c3cccc(S(C)(=O)=O)c3)cc2)c(C)c1 [SR9243] | 
> 10 | > 10 |  | 1.06 ± 0.063 | 21 |  |  | Cc1oc2ccccc2c1CNC(=O)NCc1cccs1 [S07662] | 
> 10 | > 10 |  | 0.251 ± 0.015 | 19 |  |  | CCOC(=O)Nc1ccc2c(c1)N(C(=O)CN(CC)CC)c1ccccc1CC2 [CINPA1] | 
> 10 | 0.612 ± 0.188 |  | > 10 |  | 33 |  | COC(=O)/C=C/c1cccc(N(Cc2ccc(-c3ccc(N(C)C)cc3)cc2)C(=O)C2CCCCC2)c1 [Feraxamine] | 
> 10 |  | 64 |  |  |  |  | Clc1ccccc1C(c1ccccc1)(c1ccccc1)n1ccnc1 [Clotrimazole, clotrimazole] | 
> 10 |  |  | > 10 |  |  |  | O=C(O)Cc1cccc(OCCCN(Cc2cccc(C(F)(F)F)c2Cl)CC(c2ccccc2)c2ccccc2)c1 [GW3965] | 
> 10 |  |  | > 10 |  |  |  | CC(C)c1onc(-c2c(Cl)cccc2Cl)c1COc1ccc(/C=C/c2cccc(C(=O)O)c2)c(Cl)c1 [GW4064] | 
> 10 | > 10 |  | > 10 |  |  |  | CC(C)(C)c1nc(-c2cccc(NS(=O)(=O)c3c(F)cccc3F)c2F)c(-c2ccnc(N)n2)s1 [Dabrafenib] | 
> 10 |  |  | > 10 |  |  |  | COc1cccc(Cn2cc(C(=O)Nc3ccc(C)c(S(=O)(=O)N4CCOCC4)c3)c(-c3ccc(C)cc3)n2)c1 [DY268] | 
> 10 | > 10 |  | > 10 |  |  |  | CCOP(=O)(OCC)C(=Cc1cc(C(C)(C)C)c(O)c(C(C)(C)C)c1)P(=O)(OCC)OCC [SR12813] | 
7.38 ± 2.11 | > 10 |  | > 10 |  |  | 54 | CC(=O)Nc1nc(C)c(S(=O)(=O)Nc2ccc(C(O)(C(F)(F)F)C(F)(F)F)cc2)s1 [SR1001] | 
> 10 | > 10 |  | > 10 |  |  |  | SPA70 | 

Compound | IC50 (human RORγ) [µM] | EC50 (human FXR) [µM] | remaining activity at 10 µM (human CAR WT; [1]) [%] | IC50 (human CAR WT; tested alone, NE = No effect) [µM] | CAR WT % min act (human CAR WT; [1]) [%] | FXR % max act (human FXR; maximal luciferase activity at 10^-5 M (10^-6 M for * and 3 10^-6 M for ** compounds), 100% = 1 µM GW4064, DMSO 6 ± 1) [%] | RORγ % min act (human RORγ; constitutive activity = 100%, at 10^-5 M (10^-6 M *, 3 10^-6 M **)) [%] | remaining activity at 10 µM (human CAR WT) [%]
O=C(Nc1ccc(C(O)(C(F)(F)F)C(F)(F)F)cc1)c1ccccc1Cl [SR0987] |  | > 10 |  | > 10 |  |  |  | 
Fc1ccc(-c2c3cccc(C(F)(F)F)c3nn2Cc2ccc(F)cc2Cl)cc1 [WAY252623] | > 10 | > 10 |  | > 10 |  |  |  | 
Clc1ccc(-c2nc3sccn3c2/C=N/OCc2ccc(Cl)c(Cl)c2)cc1 [CITCO] | > 10 | > 10 |  |  |  |  |  | 
CCOC(=O)c1ccc(CN(Cc2ccc(-c3cccc(S(C)(=O)=O)c3)cc2)S(=O)(=O)c2c(C)cc(C)cc2C)o1 [SR9238] | > 10 | > 10 |  | > 10 |  |  |  | 77
O=C(Nc1ccc(C(O)(C(F)(F)F)C(F)(F)F)cc1)c1ccc(C(F)(F)F)cc1 [SR1078] |  | > 10 |  | > 10 |  |  |  | 
Cc1cc(C)c(S(=O)(=O)N(Cc2ccc(-c3cccc(S(C)(=O)=O)c3)cc2)Cc2ccc(C(F)(F)F)o2)c(C)c1 [GSK2033] | > 10 | > 10 |  | 0.556 ± 0.024 |  |  |  | 21
